The record followed here is US11667602B2, “Compounds and their use” (AstraZeneca AB, priority 2020, dated 2023).

Converted amounts (≈) assume the structure as drawn.

The nature of series [1]: Human Liver Microsomal Stability (Test C). It counts as in vitro ADME. Conditions: human, liver microsomes. The essentials:
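CLint (μl/min/mg protein) derived from compound depletion in human liver microsomes following a published standardized early-DMPK protocol; replicate determinations given as arithmetic mean.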
A general note: Microsomes from liver hold many membrane-bound enzymes, among them those of drug oxidation.

Another series in a line: Solubility (Test F). The format is physicochemical. Conditions: arithmetic mean if run multiple times. How it is done:
The assay was conducted according to the Solubility Assay described in pages 164-167 of Wernevik, J. et al., “A Fully Integrated Assay Panel for Early Drug Metabolism and Pharmacokinetics Profiling”, Assay and Drug Development Technologies, 2020, 18(4), 157-179. Data are reported in Table 36 as solubility ([…]. Where the assay was run multiple times for the same compound, the arithmetic mean is reported.

Series [2] is described as follows: Human Hepatocyte Stability (Test D). Conditions: human, cryopreserved pooled human hepatocytes (LiverPool 10-Donor), geometric mean if run multiple times. It counts as in vitro ADME. How it is done: Human Hepatocyte Stability (Test D)
The metabolic stability of compounds in human hepatocytes was assessed using the following protocol:
1. Prepare 10 mM stock solutions of compound and control compounds in appropriate solvent (DMSO). Place incubation medium (L-15 Medium) in a 37° C. water bath, and allow warming for at least 15 minutes prior to use.
2. Add 80 μL of acetonitrile to each well of the 96-well deep well plate (“Quenching plate”).
3. In a new 96-well plate, dilute the 10 mM test compounds and the control compounds to 100 μM by combining 198 μL of acetonitrile and 2 μL of 10 mM stock solution.
4. Remove a vial of cryopreserved (less than −150° C.) human hepatocytes (LiverPool™ 10-Donor Human hepatocytes obtained from Bioreclamation IVT (Product No. S01205)) from storage, ensuring that vials remain at cryogenic temperatures until thawing process ensues. As quickly as possible, thaw the cells by placing the vial in a 37° C. water bath and gently shaking the vials. Vials should remain in water bath until all ice crystals have dissolved and are no longer visible. After thawing is complete, spray vial with 70% ethanol, transfer the vial to a bio-safety cabinet.
5. Open the vial and pour the contents into the 50 mL conical tube containing thawing medium. Place the 50 mL conical tube into a centrifuge and spin at 100 g for 10 minutes (room temperature).
6. Using Cellometer® Vision, count cells and determine the viable cell density. Cells with poor viability (<80% viability) are not acceptable for use.
7. Transfer 247.5 μL of hepatocytes into each well of a 96-well cell incubation plate. Place the plate on Eppendorf Thermomixer Comfort plate shaker to allow the hepatocytes to warm for 10 minutes.
8. Add 2.5 μL of 100 μM test compound or control compounds into an incubation well containing cells to initiate the reaction.
9. Incubate the plate at 37° C. and 900 rpm on an Eppendorf Thermomixer Comfort plate shaker.
10. Centrifuge the quenching plates for 20 minutes at 4,000 rpm. Transfer 30 μL of supernatant of each compound into a 96-well analysis plate. 4 compounds are pooled together into one cassette. Then dilute the pooled sample by adding of 180 μl of pure water. All incubations are performed in singlicate.
All calculations were carried out using Microsoft Excel. Peak areas were determined from extracted ion chromatograms. In vitro intrinsic clearance (in vitro Clint, in μL/min/10^6 cells) of parent compound was determined by regression analysis of the Ln percent parent disappearance vs. time curve. The in vitro intrinsic clearance (in vitro Clint, in μL/min/10^6 cells) reported in Table 36, and was determined from the slope value using the following equation: in vitro Clint=kV/N
V=incubation volume (0.25 mL);
N=number of hepatocytes per well (0.25×10^6 cells)
Where the assay was run multiple times for the same compound, the geometric mean is reported.

For another series, the target named is T1, human RXFP1 (Homo sapiens, UniProt Q9HBX9).
T1 sequence (Q9HBX9 1-757): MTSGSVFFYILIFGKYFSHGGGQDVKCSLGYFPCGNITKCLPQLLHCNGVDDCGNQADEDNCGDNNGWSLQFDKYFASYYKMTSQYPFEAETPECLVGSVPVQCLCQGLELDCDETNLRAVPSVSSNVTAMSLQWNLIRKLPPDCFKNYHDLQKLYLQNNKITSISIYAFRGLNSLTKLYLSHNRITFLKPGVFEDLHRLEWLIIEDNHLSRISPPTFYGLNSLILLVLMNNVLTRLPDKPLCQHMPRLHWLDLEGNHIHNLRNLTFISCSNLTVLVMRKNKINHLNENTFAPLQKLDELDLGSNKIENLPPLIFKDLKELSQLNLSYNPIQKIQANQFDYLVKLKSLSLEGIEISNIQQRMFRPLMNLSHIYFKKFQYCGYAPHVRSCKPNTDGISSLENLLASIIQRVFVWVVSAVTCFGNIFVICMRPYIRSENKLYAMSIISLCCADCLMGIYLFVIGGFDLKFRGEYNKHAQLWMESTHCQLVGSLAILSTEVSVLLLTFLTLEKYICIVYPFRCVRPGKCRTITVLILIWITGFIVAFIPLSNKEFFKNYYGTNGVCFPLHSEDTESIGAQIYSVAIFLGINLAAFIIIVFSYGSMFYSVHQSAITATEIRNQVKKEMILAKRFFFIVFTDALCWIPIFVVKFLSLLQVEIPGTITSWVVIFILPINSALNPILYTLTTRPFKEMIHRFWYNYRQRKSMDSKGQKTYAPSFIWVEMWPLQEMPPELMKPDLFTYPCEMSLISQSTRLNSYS
Description: RXFP1 Hu cAMP (Test A). The format is cell-based. Set-up: expressed in transfected cells; host or cells: Jump-In T-REx CHO-K1 cells (ThermoFisher), induced with 10 ng/ml doxycycline for 24 h. Conditions: RXFP1 Hu cAMP; for EC50: read-out: Test A EC50. The procedure, abridged:
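Competitive HTRF cAMP readout (2 h, room temperature) in CHO-K1 cells stably expressing human RXFP1, induced with 10 ng/ml doxycycline for 24 h; IBMX 0.5 mM final.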

Series [3] can be described thus: Rat Hepatocyte Stability (Test E). It counts as in vitro ADME. Conditions: rat, hepatocytes, geometric mean if run multiple times. The essentials: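 Intrinsic clearance in rat hepatocytes, expressed as μl/min/10^6 cells, following the literature integrated DMPK panel method. Repeat determinations combined as geometric mean.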
The nature of series [4]: Human Plasma Protein Binding (Test B). The format is in vitro ADME. The following applies: fraction unbound (fu). The procedure, abridged:
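Values given as % free (fu) in human plasma, using the method of Wernevik et al. (2020). For compounds tested more than once, the arithmetic mean is given.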

As a reminder, the microsomal CLint is the rate of metabolic loss divided by the concentration. Lower therefore signals slow turnover. What is called solubility is how much of the substance goes into solution per volume. Low values mean little dissolved substance, high ones much dissolved substance. As usually defined, the hepatocyte CLint is the capacity of the preparation to metabolise the compound, expressed as a volume cleared per time. A lower hepatocyte CLint goes with slow turnover. Broadly, the EC50 is the concentration at which the effect is half-maximal. As for `COc1cc(F)c(-c2cccc(C[C@@H](C(=O)O)N(C)C)c2)cc1C(=O)N[C@@H]1[C@H]2CC[C@H](C2)[C@@H]1C(=O)Nc1cccc(S(=O)(=O)C(F)(F)F)c1` (racemic) [Example 293], in series [1], the intrinsic clearance (microsomal CLint) came to 27 µL/min/mg. The molecule also had a solubility in the series “Solubility (Test F)” of 21 µM (≈ 14.8 µg/mL). In series [2], this molecule gave a hepatocyte CLint at 1 µM of 8.4 µL/min/1e6 cells. Also, at human RXFP1, the “Test A Sinf” value amounted to 118% and the concentration for a half-maximal effect (EC50) stood at 390 nM. Further, the intrinsic clearance (hepatocyte CLint) in series [3] is 41 µL/min/1e6 cells.
`CCC(C)CNC(=O)C1C2CCC(C2)C1NC(=O)c1cc(OC2CCC(C(=O)O)CC2)c(F)cc1OC` (single isomer, unassigned) [Example 202, (1S,4s)-4-(2-Fluoro-4-methoxy-5-(((1S,2R,3S,4R)-3-(((R*)-2-methylbutyl)carbamoyl)bicyclo[2.2.1]heptan-2-yl)carbamoyl)phenoxy)cyclohexane-1-carboxylic acid] showed a microsomal CLint in series [1] of 14 µL/min/mg. Besides, the solubility in “Solubility (Test F)” worked out at 890 µM (≈ 462 µg/mL). Moreover, the hepatocyte CLint at 1 µM in series [2] worked out at 5.6 µL/min/1e6 cells. For the same molecule, the “Test A Sinf” value on human RXFP1 was 102%. Besides, the intrinsic metabolic clearance (hepatocyte CLint) in series [3] was 57 µL/min/1e6 cells.
On to `COc1cc(F)c(-c2ccc(C(N)=O)cc2)cc1C(=O)N[C@@H]1[C@H]2CC[C@H](C2)[C@@H]1C(=O)Nc1cccc(S(=O)(=O)C(F)(F)F)c1` [Example 434, 6-Fluoro-4-methoxy-N3-((1S,2R,3S,4R)-3-((3-((trifluoromethyl)sulfonyl)phenyl)carbamoyl)bicyclo[2.2.1]heptan-2-yl)-[1,1′-biphenyl]-3,4′-dicarboxamide], for which the intrinsic clearance (microsomal CLint) in series [1] worked out at 110 µL/min/mg. Besides, the “Test B Human Plasma Protein Binding (% free)” value in series [4] is on record as less than 0.36 % free. This molecule also yielded a solubility in the series “Solubility (Test F)” of 130 µM (≈ 82.4 µg/mL). Also, on human RXFP1, the “Test A Sinf” value is given as 82% and the EC50 came out at 590 nM. In series [3], this molecule yielded an intrinsic clearance (hepatocyte CLint) of 13 µL/min/1e6 cells.
In turn, `COc1cc(F)c(O[C@H]2CC[C@H](NS(C)(=O)=O)CC2)cc1C(=O)N[C@@H]1[C@H]2CC[C@H](C2)[C@@H]1C(=O)Nc1cccc(S(=O)(=O)C(F)(F)F)c1` [Example 460, (1R,2S,3R,4S)-3-(4-fluoro-2-methoxy-5-(((1r,4R)-4-(methylsulfonamido)cyclohexyl)oxy)benzamido)-N-(3-((trifluoromethyl)sulfonyl)phenyl)bicyclo[2.2.1]heptane-2-carboxamide] returned a microsomal CLint in series [1] of 300 µL/min/mg. For the same molecule, the “Test B Human Plasma Protein Binding (% free)” value in series [4] is given as 0.32 % free. This molecule also yielded a solubility in “Solubility (Test F)” of 2 µM (≈ 1.41 µg/mL). On human RXFP1, the “Test A Sinf” value came to 103% and the EC50 is 370 nM. In series [3], this molecule returned a hepatocyte CLint of 47 µL/min/1e6 cells.
With `COc1cc(Br)c(O[C@H]2CC[C@@H](C(=O)O)CC2)cc1C(=O)N[C@@H]1[C@H]2CC[C@H](C2)[C@@H]1C(=O)Nc1cccc(S(=O)(=O)C(F)(F)F)c1` [Example 464, (1S,4s)-4-(2-Bromo-4-methoxy-5-(((1S,2R,3S,4R)-3-((3-((trifluoromethyl)sulfonyl)phenyl)carbamoyl)bicyclo[2.2.1]heptan-2-yl)carbamoyl)phenoxy)cyclohexane-1-carboxylic acid], the microsomal CLint in series [1] is 57 µL/min/mg. The “Test B Human Plasma Protein Binding (% free)” value in series [4] is 0.54 % free. The molecule further showed a solubility in the series “Solubility (Test F)” of 200 µM (≈ 144 µg/mL). In addition, on human RXFP1, the “Test A Sinf” value was 104% and the EC50 came out at 64 nM. In series [3], the hepatocyte CLint came to 30 µL/min/1e6 cells.
In the case of `COc1cc(C)c(O[C@H]2CC[C@@H](C(=O)O)CC2)cc1C(=O)N[C@@H]1[C@H]2CC[C@H](C2)[C@@H]1C(=O)Nc1cccc(S(=O)(=O)C(F)(F)F)c1` [Example 465, (1S,4s)-4-(4-Methoxy-2-methyl-5-(((1S,2R,3S,4R)-3-((3-((trifluoromethyl)sulfonyl)phenyl)carbamoyl)bicyclo[2.2.1]heptan-2-yl)carbamoyl)phenoxy)cyclohexane-1-carboxylic acid], the intrinsic clearance (microsomal CLint) in series [1] came to 74 µL/min/mg. In addition, in series [4], the “Test B Human Plasma Protein Binding (% free)” value came to 0.76 % free. For the same molecule, the solubility in the series “Solubility (Test F)” came to 300 µM (≈ 196 µg/mL). Further, on human RXFP1, the “Test A Sinf” value is 97% and the half-maximal effective concentration (EC50) came out at 120 nM. In series [3], this molecule displayed an intrinsic clearance (hepatocyte CLint) of 36 µL/min/1e6 cells.
The molecule `COc1ccc(O[C@H]2CC[C@@H](C(=O)O)CC2)cc1C(=O)N[C@@H]1[C@H]2CC[C@H](C2)[C@@H]1C(=O)Nc1cccc(S(=O)(=O)C(F)(F)F)c1` [Example 466, (1S,4s)-4-(4-Methoxy-3-(((1S,2R,3S,4R)-3-((3-((trifluoromethyl)sulfonyl)phenyl)carbamoyl)bicyclo[2.2.1]heptan-2-yl)carbamoyl)phenoxy)cyclohexane-1-carboxylic acid] showed a microsomal CLint in series [1] of 37 µL/min/mg. Moreover, the “Test B Human Plasma Protein Binding (% free)” value in series [4] was determined as 2.1 % free. Also, the solubility in “Solubility (Test F)” is greater than 1000 µM. Moreover, at human RXFP1, the “Test A Sinf” value was found to be 106% and the concentration for a half-maximal effect (EC50) was found to be 93 nM. This molecule also yielded an intrinsic clearance (hepatocyte CLint) in series [3] of 29 µL/min/1e6 cells.
For `COc1cc(C#N)c(O[C@H]2CC[C@@H](C(=O)O)CC2)cc1C(=O)N[C@@H]1[C@H]2CC[C@H](C2)[C@@H]1C(=O)Nc1cccc(S(=O)(=O)C(F)(F)F)c1` [Example 467, (1S,4s)-4-(2-Cyano-4-methoxy-5-(((1S,2R,3S,4R)-3-((3-((trifluoromethyl)sulfonyl)phenyl)carbamoyl)bicyclo[2.2.1]heptan-2-yl)carbamoyl)phenoxy)cyclohexane-1-carboxylic acid], in series [1], the microsomal CLint turned out to be 37 µL/min/mg. In addition, the “Test B Human Plasma Protein Binding (% free)” value in series [4] worked out at 3.7 % free. In “Solubility (Test F)”, this molecule displayed a solubility greater than 1000 µM. In addition, on human RXFP1, the “Test A Sinf” value stood at 99% and the EC50 was 19 nM. In series [3], this molecule gave a hepatocyte CLint of 47 µL/min/1e6 cells.
